Data as given in patent US20230263822A1, “MODULATION OF FACTOR 11 EXPRESSION” (Ionis Pharmaceuticals, Inc., priority 2008, published 2023).

Experiment: Hematology assays in cynomolgus monkeys (Example 45)
Assay type: in vivo
Protocol: Groups, each consisting of two male and three female monkeys, were injected subcutaneously with ISIS 416838, ISIS 416850, ISIS 416858, ISIS 416864, or ISIS 417002 in escalating doses. Antisense oligonucleotide was administered to the monkeys at 5 mg/kg three times per a week for week 1; 5 mg/kg twice per week for weeks 2 and 3; 10 mg/kg three times per week for week 4; 10 mg/kg twice per week for weeks 5 and 6; 25 mg/kg three times per week for week 7; and 25 mg/kg twice per week for weeks 8, 9, 10, 11, and 12. One control group, consisting of two male and three female monkeys, was injected subcutaneously with PBS according to the same dosing regimen. An additional experimental group, consisting of two male and three female monkeys, was injected subcutaneously with ISIS 416850 in a chronic, lower dose regimen. Antisense oligonucleotide was administered to the monkeys at 5 mg/kg three times per week for week 1; 5 mg/kg twice per week for week 2 and 3; 10 mg/kg three times per week for week 4; and 10 mg/kg twice per week for weeks 5 to 12. Body weights were measured weekly. Blood samples were collected 14 days and 5 days before the start of treatment and subsequently once per week for Factor 11 protein activity analysis in plasma, fibrinogen measurement, PT and aPTT measurements, bleeding times, and measurement of various hematologic factors. On day 85, the monkeys were euthanized by exsanguination while under deep anesthesia, and organs harvested for further analysis.
The ISIS oligonucleotide, ISIS 416850, given with the chronic dose regimen is distinguished from the other oligonucleotides with an asterisk (*).

[1] = day 8, chronic dose regimen (*)
[2] = day 15, chronic dose regimen (*)
[3] = day 15, escalating dose regimen
[4] = day 22, chronic dose regimen (*)
[5] = day 22, escalating dose regimen
[6] = day 29, chronic dose regimen (*)
[7] = day 29, escalating dose regimen
[8] = day 36, chronic dose regimen (*)
[9] = day 36, escalating dose regimen
[10] = day 43, chronic dose regimen (*)

Substance: ISIS 416850: MOE gapmer, nucleobases 1275 to 1318 of SEQ ID NO: 1 (Table 8) (antisense TGCACAGTTTCTGGCAGGCC; MOE gapmer, wing and gap sizes not given here)
- MCH (Day 64, escalating dose regimen): 22 pg
- MCH (Day 71, escalating dose regimen): 23 pg
- MCH (Day 78, escalating dose regimen): 23 pg
- MCH (Day 85, escalating dose regimen): 22 pg
- basophils (day 8): 0.2%
- eosinophils (day 8): 1.1%
- lymphocytes (day 8): 39%
- monocytes (day 8): 1.8%
- neutrophils (day 8): 57%
- platelet count (day 8): 548000 µL⁻¹
- reticulocytes (day 8): 1.2%
- MCH [1]: 23 pg
- MCHC [1]: 29 g/dL
- MCV [1]: 79 fL
- RBC count [1]: 5.5e+06 µL⁻¹
- WBC count [1]: 13000 µL⁻¹
- basophils [1]: 0.3%
- eosinophils [1]: 0.5%
- hematocrit [1]: 43%
- hemoglobin [1]: 12.5 g/dL
- lymphocytes [1]: 44%
- monocytes [1]: 1.8%
- neutrophils [1]: 53%
- platelet count [1]: 401000 µL⁻¹
- reticulocytes [1]: 1.1%
- MCH (day 8, escalating dose regimen): 23 pg
- MCHC (day 8, escalating dose regimen): 29 g/dL
- MCV (day 8, escalating dose regimen): 80 fL
- RBC count (day 8, escalating dose regimen): 5.4e+06 µL⁻¹
- WBC count (day 8, escalating dose regimen): 10000 µL⁻¹
- hematocrit (day 8, escalating dose regimen): 43%
- hemoglobin (day 8, escalating dose regimen): 12.4 g/dL
- basophils (day 15): 0.2%
- eosinophils (day 15): 1.0%
- lymphocytes (day 15): 38%
- monocytes (day 15): 2.0%
- neutrophils (day 15): 58%
- platelet count (day 15): 559000 µL⁻¹
- reticulocytes (day 15): 1.9%
- MCH [2]: 23 pg
- MCHC [2]: 30 g/dL
- MCV [2]: 75 fL
- RBC count [2]: 5.3e+06 µL⁻¹
- WBC count [2]: 16000 µL⁻¹
- basophils [2]: 0.2%
- eosinophils [2]: 0.2%
- hematocrit [2]: 40%
- hemoglobin [2]: 12.2 g/dL
- lymphocytes [2]: 24%
- monocytes [2]: 1.5%
- neutrophils [2]: 73%
- platelet count [2]: 396000 µL⁻¹
- reticulocytes [2]: 1.0%
- MCH [3]: 23 pg
- MCHC [3]: 30 g/dL
- MCV [3]: 76 fL
- RBC count [3]: 5.3e+06 µL⁻¹
- WBC count [3]: 9000 µL⁻¹
- hematocrit [3]: 40%
- hemoglobin [3]: 12.1 g/dL
- basophils (day 22): 0.2%
- eosinophils (day 22): 0.7%
- lymphocytes (day 22): 39%
- monocytes (day 22): 2.4%
- neutrophils (day 22): 57%
- platelet count (day 22): 466000 µL⁻¹
- reticulocytes (day 22): 1.9%
- MCH [4]: 23 pg
- MCHC [4]: 29 g/dL
- MCV [4]: 79 fL
- RBC count [4]: 5.1e+06 µL⁻¹
- WBC count [4]: 15000 µL⁻¹
- basophils [4]: 0.1%
- eosinophils [4]: 0.5%
- hematocrit [4]: 40%
- hemoglobin [4]: 11.7 g/dL
- lymphocytes [4]: 33%
- monocytes [4]: 1.9%
- neutrophils [4]: 64%
- platelet count [4]: 347000 µL⁻¹
- reticulocytes [4]: 1.0%
- MCH [5]: 24 pg
- MCHC [5]: 28 g/dL
- MCV [5]: 83 fL
- RBC count [5]: 5e+06 µL⁻¹
- WBC count [5]: 10000 µL⁻¹
- hematocrit [5]: 41%
- hemoglobin [5]: 11.6 g/dL
- basophils (day 29): 0.2%
- eosinophils (day 29): 1.2%
- lymphocytes (day 29): 43%
- monocytes (day 29): 2.7%
- neutrophils (day 29): 53%
- platelet count (day 29): 475000 µL⁻¹
- reticulocytes (day 29): 2.5%
- MCH [6]: 23 pg
- MCHC [6]: 28 g/dL
- MCV [6]: 82 fL
- RBC count [6]: 5.2e+06 µL⁻¹
- WBC count [6]: 14000 µL⁻¹
- basophils [6]: 0.3%
- eosinophils [6]: 0.8%
- hematocrit [6]: 42%
- hemoglobin [6]: 12.0 g/dL
- lymphocytes [6]: 53%
- monocytes [6]: 2.7%
- neutrophils [6]: 42%
- platelet count [6]: 370000 µL⁻¹
- reticulocytes [6]: 1.4%
- MCH [7]: 23 pg
- MCHC [7]: 28 g/dL
- MCV [7]: 83 fL
- RBC count [7]: 4.9e+06 µL⁻¹
- WBC count [7]: 11000 µL⁻¹
- hematocrit [7]: 41%
- hemoglobin [7]: 11.5 g/dL
- basophils (day 36): 0.3%
- eosinophils (day 36): 1.7%
- lymphocytes (day 36): 39%
- monocytes (day 36): 2.1%
- neutrophils (day 36): 57%
- platelet count (day 36): 505000 µL⁻¹
- reticulocytes (day 36): 2.2%
- MCH [8]: 23 pg
- MCHC [8]: 30 g/dL
- MCV [8]: 76 fL
- RBC count [8]: 5.3e+06 µL⁻¹
- WBC count [8]: 16000 µL⁻¹
- basophils [8]: 0.1%
- eosinophils [8]: 0.4%
- hematocrit [8]: 41%
- hemoglobin [8]: 12.3 g/dL
- lymphocytes [8]: 26%
- monocytes [8]: 1.5%
- neutrophils [8]: 72%
- platelet count [8]: 379000 µL⁻¹
- reticulocytes [8]: 1.3%
- MCH [9]: 23 pg
- MCHC [9]: 29 g/dL
- MCV [9]: 80 fL
- RBC count [9]: 5.3e+06 µL⁻¹
- WBC count [9]: 10000 µL⁻¹
- hematocrit [9]: 42%
- hemoglobin [9]: 12.2 g/dL
- basophils (day 43): 0.3%
- eosinophils (day 43): 1.2%
- lymphocytes (day 43): 45%
- monocytes (day 43): 2.6%
- neutrophils (day 43): 50%
- platelet count (day 43): 490000 µL⁻¹
- reticulocytes (day 43): 1.6%
- MCH [10]: 23 pg
- MCHC [10]: 30 g/dL
- MCV [10]: 77 fL
- RBC count [10]: 5.2e+06 µL⁻¹
- WBC count [10]: 15000 µL⁻¹
- basophils [10]: 0.2%
- eosinophils [10]: 0.4%
- hematocrit [10]: 40%
- hemoglobin [10]: 11.8 g/dL
- lymphocytes [10]: 36%
